Source: patent publication US8460712B2, “Prolonged release formulations comprising an 2-oxo-1-pyrrolidine derivate” (UCB Pharma, S.A., priority 2008, dated 2013)

Tests used:
rat hippocampal slices [1] = test: epileptiform responses in hippocampal slices induced by high-K+/low-Ca2+ fluid (HKLCF); type: cell-based, Sprague-Dawley rats; set-up: rate of spontaneous field bursting: dose or concentration left out as unconfirmed; details: for evoked epileptiform responses (PS1 amplitude, repetitive PSs per evoked burst): CA3 area, fimbrial stimulation, HKLCF perfusion; for rate of spontaneous field bursting: HKLCF
Protocol: The effect of brivaracetam on epileptiform responses induced by high-K+/low-Ca2+ concentrations or by bicuculline was examined in transverse hippocampal slices prepared from Sprague-Dawley rats according to previously reported standard procedures. The epileptiform responses were induced by passing from a normal perfusion of artificial cerebrospinal fluid (ACSF) (K+ 3 mM; Ca2+ 2.4 mM) to either high-K+/low-Ca2+ fluid (HKLCF) (K+ 7.5 mM; Ca2+ 0.5 mM) or to 5 M bicuculline methiodide (BMI)-containing ACSF.
Extracellular field potentials (FPs) were recorded in the CA3 area of the slices with 2 M NaCl-filled glass microelectrodes. The evoked FPs were recorded at 10-min intervals in response to fimbrial stimulation with constant current rectangular pulses that elicit a single population spike (PS) of 50-75% of the maximal amplitude when the slice is in ACSF. In the HKLCF model, 2 min of spontaneous activity were also recorded, in the middle of each 10-min interval between the recordings of evoked responses.
Either brivaracetam or levetiracetam was added to the bathing fluid of the slices 20 min before shifting from ACSF to either HKLCF or […] BMI-containing ACSF, and was kept in the perfusion fluid throughout the experiment.

[2] = test system: fully amygdala-kindled rats; test: fully amygdala-kindled rats; type: in vivo; details: for dose from which significant suppression in motor-seizure severity was induced: rat, in vivo
[3] = test system: genetically sound-sensitive male mice; test: audiogenic seizures in mice; type: in vivo; details: acoustic stimulus 90 dB, 30 s; brivaracetam i.p. 30 min, levetiracetam i.p. 60 min before
Protocol: Audiogenic seizures in mice: Genetically sound-sensitive male mice (16-28 g; n=10 per group), responding with wild running, clonic and tonic convulsions to an acoustic stimulation, were used. Audiogenic seizures were induced by an acoustic stimulus (90 dB, 10-20 kHz) applied for 30 s. The mice were pretreated with either saline, brivaracetam (i.p., 30 min) or levetiracetam (i.p., 60 min), and the proportion of mice protected against clonic convulsions was used as the end point to assess anticonvulsant activity.

mice [4] = test: chemically induced seizures in mice (pentylenetetrazol); type: in vivo; details: i.p. 30 min before seizure induction; pentylenetetrazol 83 mg kg-1 s.c.; higher ED50 than audiogenic
Protocol: The dose was selected based on dose-effect curves in saline-treated animals as the convulsive dose inducing clonic convulsions of all four extremities in 97% of the animals. Immediately after administration of the chemoconvulsant, the mice were placed individually in small plastic cages (25 13 8 cm) and observed for the presence of clonic convulsions in all four extremities, for 60 min. The occurrence of tonic convulsions (hindlimb extension) and mortality was also recorded during this interval. The proportion of mice protected against clonic convulsions was calculated and used as the end point for anticonvulsant activity.

mice [5] = test: maximal electroshock in mice; type: in vivo; details: i.p. 30 min before seizure induction; higher ED50 than audiogenic
GAERS rats = test: spontaneous SWDs in GAERS rats; type: in vivo; details: for dose from which spontaneous SWDs were significantly suppressed: rat, in vivo
mice [6] = test: corneal kindling of mice; type: in vivo; details: continued corneal stimulations after termination of treatment; group previously treated with the highest dose
rat hippocampal slices [7] = details: background statement; cited from earlier work
rat hippocampal slices [8] = details: background statement; cited from earlier work; remark: listed apart in the source

Structure (SMILES) | evoked epileptiform responses (PS1 amplitude, repetitive PSs per evoked burst) (rat hippocampal slices [1]) | rate of spontaneous field bursting (rat hippocampal slices [1]) | after-discharge duration ([2]; highest dose tested, 212.3 mg kg-1) | dose from which significant suppression in motor-seizure severity was induced [2] [mg/kg] | protection against the expression of clonic convulsions [3] | protection against clonic convulsions induced by pentylenetetrazol (mice [4]) | protection against tonic hindlimb extension induced by a maximal electroshock (mice [5]) | inhibition of spontaneous SWDs (GAERS rats; highest dose tested, 67.9 mg kg-1) | dose from which spontaneous SWDs were significantly suppressed (GAERS rats) [mg/kg] | incidence of generalized motor seizures (mice [6]) | solubility (water solubility) [mg/mL] | after-discharge duration ([2]; up to 1700 mg kg-1) | epileptiform responses induced by high-K+/low-Ca2+ concentrations (rat hippocampal slices [7]) | epileptiform responses induced by bicuculline (rat hippocampal slices [8])
CCC[C@@H]1CC(=O)N([C@@H](CC)C(N)=O)C1 [Brivaracetam, (2S)-2-[(4R)-2-oxo-4-propyl-pyrrolidin-1-yl] butanamide] | reduced | reduced | significantly reduced | ≥ 21.2 | protected | protected | protected | complete inhibition | ≥ 2.1 | persistent reduction | > 500 | – | – | –
CC[C@@H](C(N)=O)N1CCCC1=O [Levetiracetam, (S)-(−)-alpha-ethyl-2-oxo-1-pyrrolidine acetamide] | reduced | not | – | ≥ 170 | protected | – | – | – | ≥ 5.4 | – | – | inactive | reduces | reduces
CC[C@@H](C(N)=O)N1C[C@H](C=C(F)F)CC1=O [Seletracetam, (2S)-2-[(4S)-4-(2,2-difluorovinyl)-2-oxo-pyrrolidin-1-yl]butanamide] | – | – | – | – | – | – | – | – | – | – | > 500 | – | – | –
